Patent publication US20100196282A1, “OPTICAL IMAGING AGENTS” (priority 2007, published 2010)
Where a SMILES comes first, the peptide text is derived from it. Bridges are numbered along the chain shown (N, C = ends). The star is where a group is joined. X8 = CC1=CC(C)(C)N(CCCS(=O)(=O)O)c2cc3c(cc21)/C(=C/C=C/C1=[N+](CCCS(=O)(=O)[O-])c2ccc(S(=O)(=O)O)cc2C1(C)CCCC(=O)*)C=C(C(C)(C)C)O3; X7 = CCN1c2cc3c(cc2C(C)=CC1(C)C)/C(=C/C=C/C1=[N+](CCCS(=O)(=O)[O-])c2ccc(S(=O)(=O)O)cc2C1(C)CCCC(=O)*)C=C(C(C)(C)C)O3; X2 = CCN1c2cc3c(cc2C(C)=CC1(C)C)/C(=C/C=C/C1=[N+](CCCCCC(=O)*)c2ccc(S(=O)(=O)[O-])cc2C1(C)C)C=C(C(C)(C)C)O3; X3 = CCN(CCCS(=O)(=O)O)c1ccc2c(c1)OC(C(C)(C)C)=C/C2=C\C=C\C1=[N+](CCCCCC(=O)*)c2ccc(S(=O)(=O)[O-])cc2C1(C)C; X9 = CCN(CC)c1ccc2c(c1)OC(C(C)(C)C)=C/C2=C\C=C\C1=[N+](CCCS(=O)(=O)[O-])c2ccc(S(=O)(=O)O)cc2C1(C)CCCC(=O)*

Columns and labels:
human serum albumin [1] = biological target: T1, human serum albumin (Homo sapiens, UniProt P02768)
human c-Met/Fc chimera = biological target: T2, human c-Met/Fc chimera (Homo sapiens, UniProt P08581); assay: Fluorescence polarisation assay, affinity binding to cMet; settings: 5 nM dye-labelled peptide, c-Met/Fc 0-250 nM, 10 min at 30° C., one-site binding
T2 construct: Fc (immunoglobulin Fc fusion partner); purchased R&D Systems
Experimental: Monochromatic light passes through a […] polarizing filter and excites fluorescent molecules in the sample. Only those molecules that oriented properly in the vertically polarized plane adsorb light, become excited, and subsequently emit light. The emitted light is measured in both horizontal and vertical planes. The anisotropy value (A), is the ratio between the light intensities following the equation
The fluorescence anisotropy measurements were performed in 384-well microplates in a volume of 10 μL in binding buffer (PBS, 0.01% Tween-20, pH 7.5) using a Tecan Safire fluorescence polarisation plate reader (Tecan, US) at Ex 635/Em 678 nm. The concentration of dye-labelled peptide was held constant (5 nM) and the concentration of the human c-Met/Fc chimera (R&D Systems) was varied from 0-250 nM. Binding mixtures were equilibrated in the microplate for 10 min at 30° C. The observed change in anisotropy was fitted to the equation: […]
where robs is the observed anisotropy, rfree is the anisotropy of the free peptide, rbound is the anisotropy of the bound peptide, Kd is the dissociation constant, cMet is the total c-Met concentration, and P is the total dye-labelled peptide concentration. The equation assumes that the synthetic peptide and the receptor form a reversible complex in solution with 1:1 stoichiometry. Data fitting was done via nonlinear regression using SigmaPlot software to obtain the Kd value (one-site binding).
Compounds 1 to 6 were tested for binding towards human c-Met (Fc chimera).

human serum albumin [2] = biological target: T1, human serum albumin; assay: in vitro
Description: Fluorescence polarisation assay was used to examine the affinity binding of the imaging agent towards the cMet target as well as the binding properties related to plasma proteins. The principle of the fluorescence polarisation method can briefly be described as follows:
(§1) The change of the polarization value was used to assess the binding of the Compound to human serum albumin as a low change of polarisation value is associated to low binding being appropriate for in-vivo use.

in vitro = settings: mouse, plasma
Description: as §1

[3] = tested on: HT-29 human colon carcinoma tumour (c-Met expressing); assay: In vivo optical imaging of HT-29 tumour-bearing nude mice; set-up: species or system mouse; settings: HT-29 s.c. tumours in female BALB c/A nude mice, i.v., 635 nm excitation
Description: Female BALB c/A nude (Born) mice were used in the study. The use of the animals was approved by the local ethics committee. BALB c/A nude is an inbred immunocompromised mouse strain with a high take rate for human tumours as compared to other nude mice strains. The mice were 8 weeks old upon arrival and with a body weight of approx. 20 grams at the start of the study. The animals were housed in individually ventilated cages (IVC, Scanbur BK) with HEPA filtered air. The animals had ad libitum access to “Rat and Mouse nr. 3 Breeding” diet (Scanbur BK) and tap water acidified by addition of HCl to a molar concentration of 1 mM (pH 3.0).
The colon cancer cell HT-29 is derived from human colon carcinomas and is reported to express c-Met according to Zeng et al [Clin. Exp. Metastasis, 21, 409-417. (2004)]. The cell line was proven to be tumorigenic when inoculated subcutaneously into nude mice [Flatmark et al, Eur. J. Cancer 40, 1593-1598 (2004)].
HT-29 cells were grown in McCoy's 5a medium (Sigma #M8403) supplemented with 10% fetal bovine serum and penicillin/streptomycin. Stocks were made at passage number four (P4) and frozen down for storage in liquid nitrogen at 10^7 cells/vial in the respective culture media containing 5% DMSO. On the day of the transplantation, the cells were thawed quickly in 37° C. water bath (approx. 2 min), washed and resuspended in PBS/2% serum (centrifugation at 1200 rpm for 10 min). Thorough mixing of cells in the vials was ensured every time the cells were aspirated into the dosing syringe. A volume of 0.1 ml of cell suspension was injected s.c. at the shoulder and at the back using a fine bore needle (25 G). The animals were then returned to their cages and the tumours were allowed to grow for 13-17 days. The animals were allowed an acclimatisation period of at least 5 days before the inoculation procedure.
All test substances were reconstituted with PBS from freeze-dried powder. A small stack of white printer paper was imaged to obtain a flat field image which was used to correct for illumination inhomogeneities.
For immobilisation during the optical imaging procedure, the animals were anaesthetized in a coaxial open mask to light surgical level anaesthesia with Isoflurane (typically 1.3-2%), using oxygen as the carrier gas. A small piece of skin (3-5 mm) was removed over parts of the tumour and adjacent muscle using a surgical forceps and fine scissors while the animal was anaesthetized. This was done to measure the signal from tumour and muscle without interference from the overlying skin tissue. The wound was covered by applying a liquid, non-fluorescent bandage spray (3M, MN, USA).
The respiration and body temperature of the animal was monitored with a BioVet system (m2m Imaging Corp, NJ, USA) using a pneumatic sensor underneath the animal and a rectal temperature probe. The BioVet system also supplied external heating using a heating mat set to 40° C. to sustain normal body temperature for the duration of the imaging procedure (2 hours). A Venflon catheter was placed in the tail vein for contrast agent administration. Each animal was given one contrast agent injection. The injected volume was 0.1 ml of test compound followed immediately by a 0.2 ml saline flush. Fluorescence images were acquired just prior to injection and then every 30 seconds for 2 hours.
Imaging was performed through a clinical laparoscope adapted to use a light source to excite the reporter and a filtering system to extract the fluorescence component. […]

T1 sequence (P02768 25-609): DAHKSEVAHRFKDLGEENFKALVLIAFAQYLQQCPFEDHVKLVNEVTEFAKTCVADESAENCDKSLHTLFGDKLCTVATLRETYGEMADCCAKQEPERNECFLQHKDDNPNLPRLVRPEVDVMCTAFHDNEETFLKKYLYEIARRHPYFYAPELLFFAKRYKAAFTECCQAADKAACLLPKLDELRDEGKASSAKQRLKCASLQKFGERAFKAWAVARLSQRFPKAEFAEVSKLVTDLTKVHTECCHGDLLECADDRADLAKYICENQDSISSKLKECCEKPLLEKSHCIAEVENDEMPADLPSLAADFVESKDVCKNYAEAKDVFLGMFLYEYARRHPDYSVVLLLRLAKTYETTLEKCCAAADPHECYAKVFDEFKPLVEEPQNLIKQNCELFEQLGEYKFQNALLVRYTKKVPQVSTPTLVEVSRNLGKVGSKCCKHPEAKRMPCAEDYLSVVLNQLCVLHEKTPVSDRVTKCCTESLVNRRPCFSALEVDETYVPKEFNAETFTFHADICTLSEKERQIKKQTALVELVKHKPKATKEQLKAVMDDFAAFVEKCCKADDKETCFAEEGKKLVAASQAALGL
T2 sequence (P08581 with tags, fused parts or gaps limits assumed): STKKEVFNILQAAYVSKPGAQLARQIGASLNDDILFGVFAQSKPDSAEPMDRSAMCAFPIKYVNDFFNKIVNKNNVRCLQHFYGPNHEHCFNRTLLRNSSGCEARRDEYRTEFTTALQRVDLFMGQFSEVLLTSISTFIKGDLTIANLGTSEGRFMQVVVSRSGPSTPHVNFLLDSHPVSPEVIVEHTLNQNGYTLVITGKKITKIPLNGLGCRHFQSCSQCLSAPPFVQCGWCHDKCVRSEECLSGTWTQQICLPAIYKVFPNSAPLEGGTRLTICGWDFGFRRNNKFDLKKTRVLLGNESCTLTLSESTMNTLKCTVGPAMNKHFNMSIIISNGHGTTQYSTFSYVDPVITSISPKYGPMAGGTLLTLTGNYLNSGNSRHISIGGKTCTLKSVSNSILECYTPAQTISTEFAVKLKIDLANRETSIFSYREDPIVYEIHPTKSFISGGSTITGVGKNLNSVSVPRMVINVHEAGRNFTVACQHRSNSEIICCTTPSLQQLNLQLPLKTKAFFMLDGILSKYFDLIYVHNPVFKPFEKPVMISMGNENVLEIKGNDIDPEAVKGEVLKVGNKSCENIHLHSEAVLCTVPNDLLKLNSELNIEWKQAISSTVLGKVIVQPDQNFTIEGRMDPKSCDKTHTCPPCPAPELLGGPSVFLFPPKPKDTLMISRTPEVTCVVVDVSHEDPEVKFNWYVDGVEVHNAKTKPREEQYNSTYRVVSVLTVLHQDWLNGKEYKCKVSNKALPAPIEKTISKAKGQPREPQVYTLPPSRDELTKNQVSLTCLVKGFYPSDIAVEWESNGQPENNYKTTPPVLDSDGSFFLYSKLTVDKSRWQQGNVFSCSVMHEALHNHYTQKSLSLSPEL
T2 sequence (P08581 25-307 limits assumed, change not shown): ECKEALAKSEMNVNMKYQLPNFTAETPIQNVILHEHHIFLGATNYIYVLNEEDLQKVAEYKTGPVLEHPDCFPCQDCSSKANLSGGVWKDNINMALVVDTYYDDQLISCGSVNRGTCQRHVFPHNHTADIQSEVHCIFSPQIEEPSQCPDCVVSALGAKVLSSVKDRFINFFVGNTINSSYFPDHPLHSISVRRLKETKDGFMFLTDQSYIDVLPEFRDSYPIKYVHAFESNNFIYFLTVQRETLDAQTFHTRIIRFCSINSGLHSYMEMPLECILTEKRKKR

## CCN1c2cc3c(cc2C(C)=CC1(C)C)/C(=C/C=C/C1=[N+](CCCCCC(=O)NCCCC[C@H](NC(=O)CNC(=O)CNC(=O)CNC(=O)[C@@H](NC(=O)CNC(=O)[C@H](CCC(=O)O)NC(=O)[C@@H](NC(=O)[C@H](CCC(=O)O)NC(=O)[C@H](Cc2ccc(O)cc2)NC(=O)[C@@H]2CSSC[C@H](NC(=O)[C@H](CO)NC(=O)CNC(=O)[C@H](C)NC(C)=O)C(=O)N[C@@H](Cc4ccc(O)cc4)C(=O)N[C@H]4CSSC[C@H](NC(=O)[C@H](CCC(=O)O)NC(=O)[C@H](Cc5ccccc5)NC(=O)[C@H](CCCNC(=N)N)NC(=O)[C@@H]5CCCN5C(=O)[C@@H]5CCCN5C(=O)CNC(=O)[C@H](CO)NC4=O)C(=O)N[C@@H](Cc4c[nH]c5ccccc45)C(=O)N2)[C@@H](C)O)[C@@H](C)O)C(N)=O)c2ccc(S(=O)(=O)[O-])cc2C1(C)C)C=C(C(C)(C)C)O3 [Compound 4] (Ac-AGSCYCSGPPRFECWCYETEGTGGGK(X2)-NH2; disulfide 4-16, 6-14)
Human serum albumin [1]
  Binding human serum albumin (Biacore): Very high
Human c-Met/Fc chimera
  Kd: 3.2 nM
Human serum albumin [2]
  fraction unbound: 0.45
In vitro
  remaining at 2 h: > 95%
[3]
  Average tumour:muscle ratio (2 hours p.i.): 1.52

## CCN(CCCS(=O)(=O)O)c1ccc2c(c1)OC(C(C)(C)C)=C/C2=C\C=C\C1=[N+](CCCCCC(=O)NCCCC[C@H](NC(=O)CNC(=O)CNC(=O)CNC(=O)[C@@H](NC(=O)CNC(=O)[C@H](CCC(=O)O)NC(=O)[C@@H](NC(=O)[C@H](CCC(=O)O)NC(=O)[C@H](Cc2ccc(O)cc2)NC(=O)[C@@H]2CSSC[C@H](NC(=O)[C@H](CO)NC(=O)CNC(=O)[C@H](C)NC(C)=O)C(=O)N[C@@H](Cc3ccc(O)cc3)C(=O)N[C@H]3CSSC[C@H](NC(=O)[C@H](CCC(=O)O)NC(=O)[C@H](Cc4ccccc4)NC(=O)[C@H](CCCNC(=N)N)NC(=O)[C@@H]4CCCN4C(=O)[C@@H]4CCCN4C(=O)CNC(=O)[C@H](CO)NC3=O)C(=O)N[C@@H](Cc3c[nH]c4ccccc34)C(=O)N2)[C@@H](C)O)[C@@H](C)O)C(N)=O)c2ccc(S(=O)(=O)[O-])cc2C1(C)C [Compound 3] (Ac-AGSCYCSGPPRFECWCYETEGTGGGK(X3)-NH2; disulfide 4-16, 6-14)
Human serum albumin [1]
  Binding human serum albumin (Biacore): Low
Human c-Met/Fc chimera
  Kd: 0.5 nM
Human serum albumin [2]
  fraction unbound: 0.73
In vitro
  remaining at 2 h: > 95%
[3]
  Average tumour:muscle ratio (2 hours p.i.): 1.67

## CCN1c2cc3c(cc2C(C)=CC1(C)C)/C(=C/C=C/C1=[N+](CCCS(=O)(=O)[O-])c2ccc(S(=O)(=O)O)cc2C1(C)CCCC(=O)NCCCC[C@H](NC(=O)CNC(=O)CNC(=O)CNC(=O)[C@@H](NC(=O)CNC(=O)[C@H](CCC(=O)O)NC(=O)[C@@H](NC(=O)[C@H](CCC(=O)O)NC(=O)[C@H](Cc1ccc(O)cc1)NC(=O)[C@@H]1CSSC[C@H](NC(=O)[C@H](CO)NC(=O)CNC(=O)[C@H](C)NC(C)=O)C(=O)N[C@@H](Cc2ccc(O)cc2)C(=O)N[C@H]2CSSC[C@H](NC(=O)[C@H](CCC(=O)O)NC(=O)[C@H](Cc4ccccc4)NC(=O)[C@H](CCCNC(=N)N)NC(=O)[C@@H]4CCCN4C(=O)[C@@H]4CCCN4C(=O)CNC(=O)[C@H](CO)NC2=O)C(=O)N[C@@H](Cc2c[nH]c4ccccc24)C(=O)N1)[C@@H](C)O)[C@@H](C)O)C(N)=O)C=C(C(C)(C)C)O3 (stereo partly shown) [Compound 5] (Ac-AGSCYCSGPPRFECWCYETEGTGGGK(X7)-NH2; disulfide 4-16, 6-14)
[3]
  Average tumour:muscle ratio (2 hours p.i.): 1.22

## CC(=O)N[C@@H](C)C(=O)NCC(=O)N[C@@H](CO)C(=O)N[C@H]1CSSC[C@@H](C(=O)N[C@@H](Cc2ccc(O)cc2)C(=O)N[C@@H](CCC(=O)O)C(=O)N[C@H](C(=O)N[C@@H](CCC(=O)O)C(=O)NCC(=O)N[C@H](C(=O)NCC(=O)NCC(=O)NCC(=O)N[C@@H](CCCCNC(=O)CCCC2(C)C(/C=C/C=C3\C=C(C(C)(C)C)Oc4cc5c(cc43)C(C)=CC(C)(C)N5CCCS(=O)(=O)O)=[N+](CCCS(=O)(=O)[O-])c3ccc(S(=O)(=O)O)cc32)C(N)=O)[C@@H](C)O)[C@@H](C)O)NC(=O)[C@H](Cc2c[nH]c3ccccc23)NC(=O)[C@@H]2CSSC[C@H](NC(=O)[C@H](Cc3ccc(O)cc3)NC1=O)C(=O)N[C@@H](CO)C(=O)NCC(=O)N1CCC[C@H]1C(=O)N1CCC[C@H]1C(=O)N[C@@H](CCCNC(=N)N)C(=O)N[C@@H](Cc1ccccc1)C(=O)N[C@@H](CCC(=O)O)C(=O)N2 (stereo partly shown) [Compound 6] (Ac-AGSCYCSGPPRFECWCYETEGTGGGK(X8)-NH2; disulfide 4-16, 6-14)
[3]
  Average tumour:muscle ratio (2 hours p.i.): 1.57

## CCN(CC)c1ccc2c(c1)OC(C(C)(C)C)=C/C2=C\C=C\C1=[N+](CCCS(=O)(=O)[O-])c2ccc(S(=O)(=O)O)cc2C1(C)CCCC(=O)NCCCC[C@H](NC(=O)CNC(=O)CNC(=O)CNC(=O)[C@@H](NC(=O)CNC(=O)[C@H](CCC(=O)O)NC(=O)[C@@H](NC(=O)[C@H](CCC(=O)O)NC(=O)[C@H](Cc1ccc(O)cc1)NC(=O)[C@@H]1CSSC[C@H](NC(=O)[C@H](CO)NC(=O)CNC(=O)[C@H](C)NC(C)=O)C(=O)N[C@@H](Cc2ccc(O)cc2)C(=O)N[C@H]2CSSC[C@H](NC(=O)[C@H](CCC(=O)O)NC(=O)[C@H](Cc3ccccc3)NC(=O)[C@H](CCCNC(=N)N)NC(=O)[C@@H]3CCCN3C(=O)[C@@H]3CCCN3C(=O)CNC(=O)[C@H](CO)NC2=O)C(=O)N[C@@H](Cc2c[nH]c3ccccc23)C(=O)N1)[C@@H](C)O)[C@@H](C)O)C(N)=O (stereo partly shown) [Compound 2] (Ac-AGSCYCSGPPRFECWCYETEGTGGGK(X9)-NH2; disulfide 4-16, 6-14)
[3]
  Average tumour:muscle ratio (2 hours p.i.): 2.40
